The source of these data is US12121518B2, “PARP-1 and methods of use thereof” (The Board of Supervisors of Louisiana State University and …, priority 2017, dated 2024).

SMILES strings stand for the structures.

Data set [1] deals with trinitrobenzene sulfonic acid-induced colitis. The settings on record: in vivo; cited from earlier work.
The test system of data set [2] is steroid-resistant leukemia cells. In words: Steroid-resistant leukemia cells: cell killing and NOTCH levels. It counts as cell-based. The settings on record: GSI alone: 1 nM PF-3084014 or 25 nM BMS-906024.
The conditions of data set [3]: 20-30 μM; cited from earlier work.
In another data set the test system is ARG-1, iNOS, COX2. Nature of the data set: Immunoblot of ARG-1, iNOS, COX2 and related factors in bone marrow-derived MDSCs. It counts as cell-based, mouse. The settings on record: day 2 to day 4 of differentiation. An excerpt:
(I) Positive control for PARP-1 trapping.
Cell fractionation, protein extraction and immunoblot analysis—Tumor tissues or cells were harvested and homogenized in RIPA lysis buffer (Santa Cruz Biotechnology) containing a cocktail of protease and phosphatase inhibitors on ice. Nuclear fractions were isolated as described (35) and the remaining chromatin pellets were washed then suspended in an isotonic buffer followed by sonication. […] Protein expression signals developed by ECL (Pierce, ThermoFisher Scientific) were determined by a G:Box Gel Image Analysis System (Syngene, Cambridge, UK) equipped with the GeneSys image capture software.
A general note: In western blotting, separated proteins are transferred to a membrane and probed.

Data set [4] relates to bone marrow-derived MDSCs. Nature of the data set: Bone marrow-derived MDSC differentiation in vitro: viability and CD11b/Gr1 phenotype by FACS. The settings on record: 1 μM. In general terms: In flow cytometry, cells or beads pass a laser one at a time.
The conditions of data set [5]: in vivo; cited from earlier work.

For the molecule `NC(=O)c1cccc(N)c1` [3-aminobenzamide], in data set [1], the colitis result is “protection”.
As for `CN1C(=O)[C@@H](NC(=O)[C@H](CCC(F)(F)F)[C@H](CCC(F)(F)F)C(N)=O)N=C(c2ccccc2)c2ccccc21` [BMS-906024], the “NOTCH1 levels or cell proliferation of leukemia cells” value in data set [2] is “do not have major effects”.
Same read-out and setting: under `CCC[C@H](N[C@H]1CCc2cc(F)cc(F)c2C1)C(=O)Nc1cn(C(C)(C)CNCC(C)(C)C)cn1` [PF-3084014] stands “do not have major effects”.
As to `O=c1[nH]c2sccc2c2ccccc12` [TIQ-A], the cytotoxicity result in data set [3] is reported as “cytotoxic”.
In the case of `NC(=O)c1cccc2cn(-c3ccc([C@@H]4CCCNC4)cc3)nc12` [niraparib], the “expression of Arg1 in BM-MDSCs” value in the data set with ARG-1, iNOS, COX2 (4 nM) was “blocked expression of Arg1”.
Turning to `CNCc1ccc(-c2[nH]c3cc(F)cc4c3c2CCNC4=O)cc1` [rucaparib], in data set [4], the “MDSC population (CD11b+/Gr1+) at day 4” value is on record as “appears to increase MDSC population”. Also, the “expression of Arg1 in BM-MDSCs” value in the data set with ARG-1, iNOS, COX2 (4 nM) is given as “blocked expression of Arg1”.
Regarding `Cn1ncnc1[C@H]1c2n[nH]c(=O)c3cc(F)cc(c23)N[C@@H]1c1ccc(F)cc1` [talazoparib], the maximum tolerated dose in data set [5] is on record as 1 mg/day. Also, in the data set with ARG-1, iNOS, COX2 (0.4 nM), the “expression of Arg1 in BM-MDSCs” value was “blocked expression of Arg1”.
Regarding `C[C@]1(c2nc3c(C(N)=O)cccc3[nH]2)CCCN1` [velaparib], the “expression of Arg1 in BM-MDSCs” value in the data set on ARG-1, iNOS, COX2 (4 nM) is given as “blocked expression of Arg1”.
